Results published in the supplement of paper PMC4862054.

Columns and labels:
Conditions in all cases: incubation time: 72 h
DU-4475 [1] = assay: normalised viability (% of control), CellTiter-Blue; higher = more viable cells (about 100 = DMSO control)
Summary of the method: (§1)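 Normalised viability is given for a single listed concentration of the series. In 384-well plates, breast cancer cell lines were incubated 72 h with compound, then read with CellTiter-Blue (2 h, 37 °C) at 560/590 nm. Per-plate scaling set vehicle to 100 and a positive kill control to 0, with Z'-factor quality control.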

MFM-223 [2] = assay: as above
Summary of the method: as §1

BT-549 [3] = assay: as above
Summary of the method: as §1

BT-474 [4] = assay: as above
Summary of the method: as §1

MDA-MB-453 [5] = assay: as above
Summary of the method: as §1

DU-4475 [6] = assay: normalised viability (% of control), CellTiter-Blue; higher = more viable cells (100 = DMSO, 0 = benzethonium chloride kill control)
Protocol: (§2)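 DSRT, CellTiter-Blue viability, 72 h incubation. Signal is normalised to DMSO and benzethonium chloride controls. Value is the normalised response at dose 1.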

MDA-MB-231 = assay: as above
Protocol: as §2

MFM-223 [7] = assay: as above
Protocol: as §2

CAL-51 = assay: as above
Protocol: as §2

CAL-120 = assay: as above
Protocol: as §2

HCC1937 = assay: as above
Protocol: as §2

MDA-MB-436 = assay: as above
Protocol: as §2

BT-549 [8] = assay: as above
Protocol: as §2

CAL-85-1 = assay: as above
Protocol: as §2

BT-474 [9] = assay: as above
Protocol: as §2

MDA-MB-453 [10] = assay: as above
Protocol: as §2

HCC1143 = assay: as above
Protocol: as §2

Hs578T = assay: as above
Protocol: as §2

HDQ-P1 = assay: as above
Protocol: as §2

HCC1599 = assay: as above
Protocol: as §2

MDA-MB-468 = assay: as above
Protocol: as §2

SK-BR-3 = assay: as above
Protocol: as §2

CAL-148 = assay: as above
Protocol: as §2

C[C@]12C=CC(=O)C=C1CC[C@@H]1[C@@H]2[C@@H](O)C[C@@]2(C)[C@H]1CC[C@]2(O)C(=O)CO [Prednisolone]
normalised viability (DU-4475 [1]; 10 nM): 101%
normalised viability (MFM-223 [2]; 100 nM): 97%
normalised viability (BT-549 [3]; 100 nM): 104%
normalised viability (BT-474 [4]; 100 nM): 102%
normalised viability (MDA-MB-453 [5]; 10 nM): 105%
normalised viability (DU-4475 [6]; 1 nM): 95.6%
normalised viability (MDA-MB-231; 1 nM): 105%
normalised viability (MFM-223 [7]; 1 nM): 102%
normalised viability (CAL-51; 1 nM): 104%
normalised viability (CAL-120; 1 nM): 83.5%
normalised viability (HCC1937; 1 nM): 88.8%
normalised viability (MDA-MB-436; 1 nM): 108%
normalised viability (BT-549 [8]; 1 nM): 101%
normalised viability (CAL-85-1; 1 nM): 97.7%
normalised viability (BT-474 [9]; 1 nM): 117%
normalised viability (MDA-MB-453 [10]; 1 nM): 100%
normalised viability (HCC1143; 1 nM): 95.1%
normalised viability (Hs578T; 1 nM): 122%
normalised viability (HDQ-P1; 1 nM): 85.7%
normalised viability (HCC1599; 1 nM): 118%
normalised viability (MDA-MB-468; 1 nM): 109%
normalised viability (SK-BR-3; 1 nM): 130%
normalised viability (CAL-148; 1 nM): 111%

CC[C@@]1(O)C(=O)OCc2c1cc1n(c2=O)Cc2cc3c(CN(C)C)c(O)ccc3nc2-1 [Topotecan]
normalised viability (DU-4475 [1]; 1 nM): 92.6%
normalised viability (MFM-223 [2]; 10 nM): 92.1%
normalised viability (BT-549 [3]; 10 nM): 107%
normalised viability (BT-474 [4]; 10 nM): 121%
normalised viability (MDA-MB-453 [5]; 1 nM): 101%
normalised viability (DU-4475 [6]; 0.1 nM): 102%
normalised viability (MDA-MB-231; 0.1 nM): 98.6%
normalised viability (MFM-223 [7]; 0.1 nM): 100%
normalised viability (CAL-51; 0.1 nM): 92.5%
normalised viability (CAL-120; 0.1 nM): 85.9%
normalised viability (HCC1937; 0.1 nM): 81.5%
normalised viability (MDA-MB-436; 0.1 nM): 99.9%
normalised viability (BT-549 [8]; 0.1 nM): 96.1%
normalised viability (CAL-85-1; 0.1 nM): 85.5%
normalised viability (BT-474 [9]; 0.1 nM): 111%
normalised viability (MDA-MB-453 [10]; 0.1 nM): 110%
normalised viability (HCC1143; 0.1 nM): 98.3%
normalised viability (Hs578T; 0.1 nM): 110%
normalised viability (HDQ-P1; 0.1 nM): 115%
normalised viability (HCC1599; 0.1 nM): 90.8%
normalised viability (MDA-MB-468; 0.1 nM): 107%
normalised viability (SK-BR-3; 0.1 nM): 92.4%
normalised viability (CAL-148; 0.1 nM): 103%
